Tests used:
[1] = Physicochemical stability test (thermal storage of technical material in ovens for 2 months); conditions: for Stability at different temperatures: 25-70° C.; for Purity after thermal storage: HPLC
Method: Thereafter, technical materials of the two crystalline forms were placed into ovens with temperatures of 25° C., 40° C., 55° C. and 70° C. respectively and left there for 2 months for thermal storage test.

[2] = Synergistic effect with other herbicides

SMILES | Stability at different temperatures [1] | Crystalline form after thermal storage ([1]; 25° C.) | Purity after thermal storage ([1]; 25° C.) [%] | Crystalline form after thermal storage ([1]; 40° C.) | Purity after thermal storage ([1]; 40° C.) [%] | Crystalline form after thermal storage ([1]; 55° C.) | Purity after thermal storage ([1]; 55° C.) [%] | Crystalline form after thermal storage ([1]; 70° C.) | Purity after thermal storage ([1]; 70° C.) [%] | Synergistic effect with one or more listed herbicides [2]
Cc1nn(C)cc1C(=O)Oc1c(C(=O)c2ccc(C(F)(F)F)cc2S(C)(=O)=O)c(C)nn1C [Crystalline form A of shuangzuocaotong, 1,3-Dimethyl-1H-pyrazole-4-carboxylic acid 4-[2-methanesulfonyl-4-trifluoromethyl-benzoyl]-1,3-dimethyl-1H-pyrazol-5-yl ester] | good stability | Crystalline form A | 96.0 | Crystalline form A | 95.5 | Crystalline form A | 95.1 | Crystalline form A | 94.2 | –
Cc1nn(C)cc1C(=O)Oc1c(C(=O)c2ccc(C(F)(F)F)cc2S(C)(=O)=O)c(C)nn1C [Crystalline form C of shuangzuocaotong, 1,3-Dimethyl-1H-pyrazole-4-carboxylic acid 4-[2-methanesulfonyl-4-trifluoromethyl-benzoyl]-1,3-dimethyl-1H-pyrazol-5-yl ester] | good stability | Crystalline form C | 96.0 | Crystalline form C | 95.8 | Crystalline form C | 95.7 | Crystalline form C | 95.2 | obvious synergistic effect

Reference: patent US11172681B2 (priority 2017, dated 2021)
